Where two headings read alike, the source gives them in different places.
Columns and labels:
[1] = anaesthetized rats; cited from earlier work
[2] = in humans; cited from earlier work
[3] = Pharmacokinetics of exogenous mouse GIP; assay type: in vivo, female C57Bl/6Jrj mice; settings: for peak intact GIP concentration as % of peak total GIP concentration: in-house RIAs; for increase of iAUC of intact GIP upon co-administration of Val-Pyr: P < 0.0001; for Clearance, corrected for body weight / Apparent volume of distribution corrected for body weight: IV 25 nmol/kg BW, mean ± SE, n = 6-9; for Clearance, corrected for body weight: CL = k*Vd
[4] = female, C57Bl/6Jrj, mouse, plasma, iv, 25 nmol/kg BW

Molecule | plasma half-life [1] | plasma half-life [2] | peak intact GIP concentration as % of peak total GIP concentration ([3]; IP injection 25 nmol/kg BW, with Val-Pyr) [%] | peak intact GIP concentration as % of peak total GIP concentration ([3]; IP injection 25 nmol/kg BW, without Val-Pyr) [%] | increase of iAUC of intact GIP upon co-administration of Val-Pyr ([3]; IP injection 25 nmol/kg BW, Fig. 1F) [fold] | Clearance, corrected for body weight ([3]; Val-Pyr co-administration) [µL/min/g] | Apparent volume of distribution corrected for body weight ([3]; Val-Pyr co-administration) [mL/g] | Clearance, corrected for body weight ([3]; placebo (no Val-Pyr)) [µL/min/g] | Apparent volume of distribution corrected for body weight ([3]; placebo (no Val-Pyr), Vd = total dose/C0) [mL/g] | peak intact GIP concentration as % of peak total GIP concentration ([3]; IV injection 25 nmol/kg BW, with Val-Pyr) [%] | peak intact GIP concentration as % of peak total GIP concentration ([3]; IV injection 25 nmol/kg BW, without Val-Pyr, mean) [%] | increase of iAUC of intact GIP upon co-administration of Val-Pyr ([3]; IV injection 25 nmol/kg BW, Fig. 1B) [fold] | peak intact GIP concentration as % of peak total GIP concentration ([3]; SC injection 25 nmol/kg BW, with Val-Pyr) [%] | peak intact GIP concentration as % of peak total GIP concentration ([3]; SC injection 25 nmol/kg BW, without Val-Pyr) [%] | increase of iAUC of intact GIP upon co-administration of Val-Pyr ([3]; SC injection 25 nmol/kg BW, Fig. 1D) [fold] | half-life [3, 4] [min] | tissue uptake dose [3, 4] [%ID] | tissue uptake dose ([3]; female, C57Bl/6Jrj, mouse, plasma, sc, 25 nmol/kg BW) [%ID] | intact GIP levels as % of total GIP plasma concentrations ([3]; following SC and IP GIP administration without DPP-4 inhibitor)
CC[C@H](C)[C@H](NC(=O)[C@H](CO)NC(=O)[C@H](Cc1ccc(O)cc1)NC(=O)[C@H](CC(=O)O)NC(=O)[C@H](CO)NC(=O)[C@@H](NC(=O)[C@H](Cc1ccccc1)NC(=O)[C@@H](NC(=O)CNC(=O)[C@H](CCC(=O)O)NC(=O)[C@H](C)NC(=O)[C@@H](N)Cc1ccc(O)cc1)[C@@H](C)O)[C@@H](C)CC)C(=O)N[C@@H](C)C(=O)N[C@@H](CCSC)C(=O)N[C@@H](CC(=O)O)C(=O)N[C@@H](CCCCN)C(=O)N[C@H](C(=O)N[C@@H](CCCNC(=N)N)C(=O)N[C@@H](CCC(N)=O)C(=O)N[C@@H](CCC(N)=O)C(=O)N[C@@H](CC(=O)O)C(=O)N[C@@H](Cc1ccccc1)C(=O)N[C@H](C(=O)N[C@@H](CC(N)=O)C(=O)N[C@@H](Cc1c[nH]c2ccccc12)C(=O)N[C@@H](CC(C)C)C(=O)N[C@@H](CC(C)C)C(=O)N[C@@H](C)C(=O)N[C@@H](CCC(N)=O)C(=O)N[C@@H](CCCNC(=N)N)C(=O)NCC(=O)N[C@@H](CCCCN)C(=O)N[C@@H](CCCCN)C(=O)N[C@@H](CO)C(=O)N[C@@H](CC(=O)O)C(=O)N[C@@H](Cc1c[nH]c2ccccc12)C(=O)N[C@@H](CCCCN)C(=O)N[C@@H](Cc1c[nH]cn1)C(=O)N[C@@H](CC(N)=O)C(=O)N[C@H](C(=O)N[C@H](C(=O)N[C@@H](CCC(N)=O)C(=O)O)[C@@H](C)O)[C@@H](C)CC)C(C)C)[C@@H](C)CC [GIP(1–42)] | approximately 2 min | approximately 7 min | 82 | 16 | 7.8 | 45 ± 4 | 0.46 ± 0.03 | 207 ± 16 | 0.34 ± 0.1 | 110 | 41 | 5.4 | 82 | 14 | 8.1 | 1.5 | 13 ± 1 | 10 ± 1 | approximately 15%
human GIP(1–42): human GIP(1–42), half-life in humans quoted from ref 11 | – | approximately 7 min | – | – | – | – | – | – | – | – | – | – | – | – | – | – | – | – | –

— article PMC7883216 (Peptides, 2021)
